Experimental data reported in PMC9940855, “First-in-Class Dual Hybrid Carbonic Anhydrase Inhibitors and Transient Receptor Potential Vanilloid 1 Agonists Revert Oxaliplatin-Induced Neuropathy” (Journal of Medicinal Chemistry, 2023).
pEC50, pKi: −log10 of the molar value. “And” between values parts separate entries of the source, which are not always exact repeats. Equal entries are not always repeated.

Legend:
hCA II = hCA II (Homo sapiens, UniProt P00918); details: read-out: KI hCA II; stopped-flow CO2 hydrase assay; mean from three different assays, errors ±5–10%
hCA IX = target: T1, hCA IX (Homo sapiens, UniProt Q16790); type: biochemical
T1 construct: made in house

hCA IV = hCA IV (Homo sapiens, UniProt P22748); details: read-out: KI hCA IV; stopped-flow CO2 hydrase assay; mean from three different assays, errors ±5–10%
TRPV1 receptor = target: T2, TRPV1 receptor (Homo sapiens, UniProt Q8NER1); assay: TRPV1 assay, Fluo-4NW fluorescence in SH-SY5Y-TRPV1 cells; type: cell-based; details: read-out: EC50 on TRPV1 receptor activity (agonism)
T2 construct: expressed in transfected cells
Experimental: SH-SY5Y-TRPV1 cells (kindly provided by Johanna Lilja and Anna Forsby (University of Stockholm, Stockholm, Sweden))[40] were cultured in 96 wells. Upon 90% confluence had been reached, the cells were loaded with 5 μM Fluo-4NW for 1 h at 37 °C. […] Briefly, after measuring the basal fluorescence of the plate (four cycles), testing compounds were added to the plate, and the fluorescence was measured for additional 10 cycles; thereafter, 10 μM capsaicin was added with a microinjector and the fluorescence was monitored for an additional 10 cycles.

hCA XII = hCA XII (Homo sapiens, UniProt O43570); details: read-out: KI hCA XII; stopped-flow CO2 hydrase assay; mean from three different assays, errors ±5–10%
hCA VII = hCA VII (Homo sapiens, UniProt P43166); details: read-out: KI hCA VII; stopped-flow CO2 hydrase assay; mean from three different assays, errors ±5–10%
hCA I = hCA I (Homo sapiens, UniProt P00915); details: read-out: KI hCA I; stopped-flow CO2 hydrase assay; mean from three different assays, errors ±5–10%
Chain of hCA I (P00915 whole entry): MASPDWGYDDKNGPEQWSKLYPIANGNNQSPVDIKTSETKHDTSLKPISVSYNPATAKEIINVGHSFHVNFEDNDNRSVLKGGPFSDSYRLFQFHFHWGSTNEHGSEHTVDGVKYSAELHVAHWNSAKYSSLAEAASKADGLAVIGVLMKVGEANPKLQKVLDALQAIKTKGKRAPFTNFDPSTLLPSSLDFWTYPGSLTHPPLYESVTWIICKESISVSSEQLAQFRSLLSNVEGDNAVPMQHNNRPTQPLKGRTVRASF

T2 sequence (Q8NER1 whole entry): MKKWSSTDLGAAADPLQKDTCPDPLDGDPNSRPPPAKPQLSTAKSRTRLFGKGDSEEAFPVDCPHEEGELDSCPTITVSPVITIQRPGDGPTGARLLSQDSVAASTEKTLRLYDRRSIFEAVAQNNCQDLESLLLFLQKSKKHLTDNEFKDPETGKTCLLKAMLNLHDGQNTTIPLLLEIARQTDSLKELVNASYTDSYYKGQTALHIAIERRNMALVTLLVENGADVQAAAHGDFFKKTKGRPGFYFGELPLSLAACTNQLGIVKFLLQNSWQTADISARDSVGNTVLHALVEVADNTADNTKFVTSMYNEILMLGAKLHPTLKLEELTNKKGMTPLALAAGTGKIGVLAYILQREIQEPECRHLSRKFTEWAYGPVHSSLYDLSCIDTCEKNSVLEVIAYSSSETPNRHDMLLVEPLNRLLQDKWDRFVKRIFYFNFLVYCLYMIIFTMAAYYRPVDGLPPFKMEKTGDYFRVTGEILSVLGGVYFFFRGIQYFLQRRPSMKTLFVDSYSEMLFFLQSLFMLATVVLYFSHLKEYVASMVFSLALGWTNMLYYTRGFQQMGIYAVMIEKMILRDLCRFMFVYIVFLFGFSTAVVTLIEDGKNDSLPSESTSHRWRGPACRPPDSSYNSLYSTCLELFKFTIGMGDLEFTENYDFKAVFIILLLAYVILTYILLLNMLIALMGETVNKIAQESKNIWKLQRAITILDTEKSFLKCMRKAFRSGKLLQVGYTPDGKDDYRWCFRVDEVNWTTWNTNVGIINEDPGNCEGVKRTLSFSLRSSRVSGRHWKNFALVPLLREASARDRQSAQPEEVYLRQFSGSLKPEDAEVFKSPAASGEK
Chain of hCA IV (P22748 19-312): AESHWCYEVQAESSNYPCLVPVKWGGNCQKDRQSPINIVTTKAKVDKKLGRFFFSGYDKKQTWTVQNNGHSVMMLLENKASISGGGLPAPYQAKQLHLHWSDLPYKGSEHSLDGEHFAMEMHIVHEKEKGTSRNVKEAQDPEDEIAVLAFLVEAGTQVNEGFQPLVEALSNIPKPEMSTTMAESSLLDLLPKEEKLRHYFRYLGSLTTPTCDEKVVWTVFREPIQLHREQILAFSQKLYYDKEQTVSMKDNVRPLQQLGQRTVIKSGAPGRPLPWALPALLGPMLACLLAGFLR
Chain of hCA XII (O43570 25-354): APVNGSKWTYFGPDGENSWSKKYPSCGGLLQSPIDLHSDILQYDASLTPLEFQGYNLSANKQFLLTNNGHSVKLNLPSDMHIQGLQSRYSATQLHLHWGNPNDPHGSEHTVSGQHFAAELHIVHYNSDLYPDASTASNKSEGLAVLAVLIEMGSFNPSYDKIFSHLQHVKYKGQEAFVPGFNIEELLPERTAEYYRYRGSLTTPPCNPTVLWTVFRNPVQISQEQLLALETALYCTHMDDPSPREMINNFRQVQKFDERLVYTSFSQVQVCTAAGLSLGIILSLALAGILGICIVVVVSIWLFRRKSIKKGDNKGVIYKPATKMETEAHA
Chain of hCA VII (P43166 whole entry): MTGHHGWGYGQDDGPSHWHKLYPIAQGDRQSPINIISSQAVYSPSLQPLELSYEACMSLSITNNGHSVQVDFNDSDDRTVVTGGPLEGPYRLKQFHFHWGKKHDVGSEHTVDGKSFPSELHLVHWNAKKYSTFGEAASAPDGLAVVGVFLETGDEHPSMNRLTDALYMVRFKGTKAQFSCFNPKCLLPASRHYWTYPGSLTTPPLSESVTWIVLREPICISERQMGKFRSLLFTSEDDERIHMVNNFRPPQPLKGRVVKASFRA

NS(=O)(=O)c1ccc(N2CC[C@@H](NC(=O)Nc3ccc(F)cc3)C2)nc1 [7a, (R)-6-(3-(3-(4-Fluorophenyl)ureido)pyrrolidin-1-yl)pyridine-3-sulfonamide]
pKi (hCA II): 7.82 | pKi (hCA IX): 7.49 | pKi (hCA IV): 5.58 | pEC50 (TRPV1 receptor): < 4.00 | pKi (hCA XII): 7.23 | pKi (hCA VII): 8.18

NS(=O)(=O)c1ccc(N2CC[C@@H](NC(=O)Nc3ccc(Cl)c(C(F)(F)F)c3)C2)nc1 [10a, (R)-6-(3-(3-(4-Chloro-3-(trifluoromethyl)phenyl)ureido)pyrrolidin-1-yl)pyridine-3-sulfonamide]
pKi (hCA I): 6.10 | pKi (hCA IX): 6.13 | pKi (hCA IV): 5.40 | pEC50 (TRPV1 receptor): 4.13 | pKi (hCA VII): 7.10

NS(=O)(=O)c1ccc(N2CC[C@@H](NC(=O)Nc3ccccc3F)C2)nc1 [11a, (R)-6-(3-(3-(2-Fluorophenyl)ureido)pyrrolidin-1-yl)pyridine-3-sulfonamide]
pKi (hCA I): 7.43 | pEC50 (TRPV1 receptor): < 4.00 | pKi (hCA XII): 7.14 | pKi (hCA VII): 6.73

NS(=O)(=O)c1ccc(N2CC[C@@H](NC(=O)Nc3ccccc3Cl)C2)nc1 [12a, (R)-6-(3-(3-(2-Chlorophenyl)ureido)pyrrolidin-1-yl)pyridine-3-sulfonamide]
pKi (hCA I): 7.08 | pKi (hCA IX): 6.50 | pKi (hCA IV): 5.52 | pEC50 (TRPV1 receptor): 4.92 | pKi (hCA XII): 7.08 | pKi (hCA VII): 7.13

NS(=O)(=O)c1ccc(N2CC[C@@H](NC(=O)Nc3ccc(Oc4ccccc4)cc3)C2)nc1 [13a, (R)-6-(3-(3-(4-Phenoxyphenyl)ureido)pyrrolidin-1-yl)pyridine-3-sulfonamide]
pKi (hCA IX): 6.61 | pEC50 (TRPV1 receptor): < 4.00 | pKi (hCA XII): 6.39 | pKi (hCA VII): 7.11

NS(=O)(=O)c1ccc(N2CC[C@@H](NC(=O)Nc3ccc(Cl)c(Cl)c3)C2)nc1 [14a, (R)-6-(3-(3-(3,4-Dichlorophenyl)ureido)pyrrolidin-1-yl)pyridine-3-sulfonamide]
pKi (hCA II): 7.09 | pKi (hCA IV): 5.31 | pEC50 (TRPV1 receptor): < 4.00 | pKi (hCA XII): 8.14 | pKi (hCA VII): 7.58

NS(=O)(=O)c1ccc(N2CC[C@@H](NC(=O)Nc3ccc([N+](=O)[O-])cc3)C2)nc1 [19a, (R)-6-(3-(3-(4-Nitrophenyl)ureido)pyrrolidin-1-yl)pyridine-3-sulfonamide]
pKi (hCA I): 6.60 | pKi (hCA II): 6.36 | pKi (hCA IX): 6.84 | pEC50 (TRPV1 receptor): < 4.00 | pKi (hCA XII): 7.24 | pKi (hCA VII): 7.25

NS(=O)(=O)c1ccc(N2CC[C@@H](NC(=O)Nc3c(F)cc(F)cc3Br)C2)nc1 [22a, (R)-6-(3-(3-(2-Bromo-4,6-difluorophenyl)ureido)pyrrolidin-1-yl)pyridine-3-sulfonamide]
pKi (hCA II): 6.35 | pKi (hCA IV): 5.31 | pEC50 (TRPV1 receptor): < 4.00 | pKi (hCA XII): 8.09 | pKi (hCA VII): 7.39

NS(=O)(=O)c1ccc(NC(=S)N[C@@H]2CCN(c3ccccn3)C2)cc1 [35a, (R)-4-(3-(1-(Pyridin-2-yl)pyrrolidin-3-yl)thioureido)benzenesulfonamide]
pKi (hCA I): 7.32 | pKi (hCA IX): 8.02 | pKi (hCA IV): 6.11 | pEC50 (TRPV1 receptor): < 4.00 | pKi (hCA XII): 8.05 | pKi (hCA VII): 8.01

NS(=O)(=O)c1cccc(NC(=S)N[C@@H]2CCN(c3ccccn3)C2)c1 [36a, (R)-3-(3-(1-(Pyridin-2-yl)pyrrolidin-3-yl)thioureido)benzenesulfonamide]
pKi (hCA I): 7.07 | pKi (hCA II): 8.02 | pKi (hCA IV): 6.49 | pEC50 (TRPV1 receptor): < 4.00 | pKi (hCA VII): 7.26

NS(=O)(=O)c1ccc(NC(=S)N[C@@H]2CCN(c3ccc(C(F)(F)F)cn3)C2)cc1 [39a, (R)-4-(3-(1-(5-(Trifluoromethyl)pyridin-2-yl)pyrrolidin-3-yl)thioureido)benzenesulfonamide]
pKi (hCA IX): 6.45 | pKi (hCA IV): 5.30 | pEC50 (TRPV1 receptor): 4.90 and 4.91 | pKi (hCA XII): 7.20 | pKi (hCA VII): 7.13

NS(=O)(=O)c1ccc(NC(=S)N[C@H]2CCN(c3ccc(C(F)(F)F)cn3)C2)cc1 [39b, (S)-4-(3-(1-(5-(Trifluoromethyl)pyridin-2-yl)pyrrolidin-3-yl)thioureido)benzenesulfonamide]
pKi (hCA IX): 8.22 | pKi (hCA IV): 5.01 | pEC50 (TRPV1 receptor): 4.90 | pKi (hCA XII): 8.03 | pKi (hCA VII): 7.80

NS(=O)(=O)c1cccc(NC(=S)N[C@@H]2CCN(c3ccc(C(F)(F)F)cn3)C2)c1 [40a, (R)-3-(3-(1-(5-(Trifluoromethyl)pyridin-2-yl)pyrrolidin-3-yl)thioureido)benzenesulfonamide]
pKi (hCA I): 6.31 | pKi (hCA IX): 7.44 | pEC50 (TRPV1 receptor): 4.66 | pKi (hCA VII): 7.26

NS(=O)(=O)c1ccc(NC(=O)N[C@@H]2CCN(c3ccccn3)C2)cc1 [41a, (R)-4-(3-(1-(Pyridin-2-yl)pyrrolidin-3-yl)ureido)benzenesulfonamide]
pKi (hCA I): 7.23 | pKi (hCA II): 8.10 | pKi (hCA IX): 7.54 | pKi (hCA IV): 5.45 | pKi (hCA XII): 7.50 | pKi (hCA VII): 8.02

NS(=O)(=O)c1cccc(NC(=O)N[C@@H]2CCN(c3ccccn3)C2)c1 [42a, (R)-3-(3-(1-(Pyridin-2-yl)pyrrolidin-3-yl)ureido)benzenesulfonamide]
pKi (hCA I): 8.02 | pKi (hCA II): 8.77 | pKi (hCA IX): 6.90 | pKi (hCA IV): 5.61 | pKi (hCA XII): 8.09 | pKi (hCA VII): 8.09

NS(=O)(=O)c1ccc(NC(=O)N[C@H]2CCN(c3cccc([N+](=O)[O-])n3)C2)cc1 [43b, (S)-4-(3-(1-(6-Nitropyridin-2-yl)pyrrolidin-3-yl)ureido)benzenesulfonamide]
pKi (hCA I): 7.12 | pKi (hCA II): 7.83 | pKi (hCA IX): 7.57 | pKi (hCA IV): 5.08 | pKi (hCA XII): 8.04 | pKi (hCA VII): 8.06

NS(=O)(=O)c1cccc(NC(=O)N[C@@H]2CCN(c3cccc([N+](=O)[O-])n3)C2)c1 [44a, (R)-3-(3-(1-(6-Nitropyridin-2-yl)pyrrolidin-3-yl)ureido)benzenesulfonamide]
pKi (hCA I): 7.12 | pKi (hCA II): 8.21 | pKi (hCA IX): 6.01 | pKi (hCA IV): 5.68 | pKi (hCA XII): 7.42 | pKi (hCA VII): 7.13

NS(=O)(=O)c1cccc(NC(=O)N[C@H]2CCN(c3cccc([N+](=O)[O-])n3)C2)c1 [44b, (S)-3-(3-(1-(6-Nitropyridin-2-yl)pyrrolidin-3-yl)ureido)benzenesulfonamide]
pKi (hCA I): 7.06 | pKi (hCA II): 8.18 | pKi (hCA IX): 6.72 | pKi (hCA IV): 5.02 | pKi (hCA XII): 7.32 | pKi (hCA VII): 7.75

NS(=O)(=O)c1ccc(NC(=O)N[C@@H]2CCN(c3ccc(C(F)(F)F)cn3)C2)cc1 [45a, (R)-4-(3-(1-(5-(Trifluoromethyl)pyridin-2-yl)pyrrolidin-3-yl)ureido)benzenesulfonamide]
pKi (hCA I): 7.14 | pKi (hCA II): 7.56 | pKi (hCA IX): 7.44 | pKi (hCA IV): 5.41 | pKi (hCA XII): 8.20 | pKi (hCA VII): 8.09

NS(=O)(=O)c1ccc(NC(=O)N[C@H]2CCN(c3ccc(C(F)(F)F)cn3)C2)cc1 [45b, (S)-4-(3-(1-(5-(Trifluoromethyl)pyridin-2-yl)pyrrolidin-3-yl)ureido)benzenesulfonamide]
pKi (hCA I): 7.16 | pKi (hCA II): 7.33 | pKi (hCA IX): 7.27 | pKi (hCA IV): 5.01 | pKi (hCA XII): 8.07 | pKi (hCA VII): 7.89

NS(=O)(=O)c1cccc(NC(=O)N[C@@H]2CCN(c3ccc(C(F)(F)F)cn3)C2)c1 [46a, (R)-3-(3-(1-(5-(Trifluoromethyl)pyridin-2-yl)pyrrolidin-3-yl)ureido)benzenesulfonamide]
pKi (hCA I): 6.70 | pKi (hCA II): 8.08 | pEC50 (TRPV1 receptor): 4.43 | pKi (hCA XII): 8.18
